Assay results published in patent publication US9346754B2, “Method of treating advanced non-alcoholic steatohepatitis” (priority 2014, dated 2016).

What was measured:
[1] = system: STAM Model of Advanced Non-Alcoholic Steatohepatitis; assay: HE staining and NAFLD Activity Score (NAS) in STAM mice; assay type: in vivo, C57BL/6 mice; set-up: key to NAS (NAFLD Activity Score): NAS scored per Kleiner criteria (Hepatology 2005); settings: for NAS (NAFLD Activity Score): mean ± SD; for Number of mice with Steatosis score 0: score 0 = <5%; for Number of mice with Lobular inflammation score 0: score 0 = No foci; for Number of mice with Steatosis score 1: score 1 = 5-33%; for Number of mice with Lobular inflammation score 1: score 1 = <2 foci/200x; for Number of mice with Hepatocyte ballooning score 1: score 1 = Few balloon cells; for Number of mice with Lobular inflammation score 2: score 2 = 2-4 foci/200x; for Number of mice with Steatosis score 2: score 2 = >33-66%; for Number of mice with Hepatocyte ballooning score 2: score 2 = Many cells/prominent ballooning
Protocol: STAM™ is a useful model for advanced non-alcoholic steatohepatitis (advanced NASH), symptoms thereof, and related liver disorders, created by the combination of chemical and dietary interventions in C57BL/6 mice. In this example, after inducing NASH, it was allowed to reach an advanced stage, and the mice were treated at 8-12 weeks. […] Vehicle, MN-001, and Telmisartan were administered by oral route in a volume of 10 mL/kg. […] For HE staining, sections were cut from paraffin blocks of liver tissue prefixed in Bouin's solution and stained with Lillie-Mayer's Hematoxylin (Muto Pure Chemicals, Japan) and eosin solution (Wako Pure Chemical Industries). NAFLD Activity score (NAS) was calculated according to the criteria of Kleiner (Kleiner D E. et al., Hepatology, 2005; 41:1313). To visualize collagen deposition, Bouin's fixed liver sections were stained using picro-Sirius red solution (Waldeck, Germany). […] P values<0.05 were considered statistically significant. […] Results were expressed as mean±SD. Ten NASH mice were orally administered vehicle supplemented with MN-001 at a dose of 10 mg/kg once daily from 8 to 12 weeks of age. Ten NASH mice were orally administered vehicle supplemented with MN-001 at a dose of 30 mg/kg once daily from 8 to 12 weeks of age. Ten NASH mice were orally administered vehicle supplemented with MN-001 at a dose of 100 mg/kg once daily from 8 to 12 weeks of age. Ten NASH mice were orally administered pure water supplemented with Telmisartan at a dose of 10 mg/kg once daily from 8 to 12 weeks of age.

[2] = system: FLAP mRNA; assay: Liver gene expression by quantitative RT-PCR: FLAP; assay type: in vivo, C57BL/6 mice; settings: 100 mg/kg oral once daily, 8 to 12 weeks of age (MN-001-high)
Protocol: (§1) Total RNA was extracted from liver samples using RNAiso (Takara Bio, Japan) according to the manufacturer's instructions. One μg of RNA was reverse-transcribed using a reaction mixture containing 4.4 mM MgCl2 (F. Hoffmann-La Roche, Switzerland), 40 U RNase inhibitor (Toyobo, Japan), 0.5 mM dNTP (Promega, USA), 6.28 μM random hexamer (Promega), 5× first strand buffer (Promega), 10 mM dithiothreitol (Invitrogen, USA) and 200 U MMLV-RT (Invitrogen) in a final volume of 20 μL. The reaction was carried out for 1 hour at 37° C., followed by 5 minutes at 99° C. Real-time PCR was performed using real-time PCR DICE and SYBR premix Taq (Takara Bio). To calculate the relative mRNA expression level, the expression of each gene was normalized to that of reference gene 36B4 (gene symbol: Rp1p0). Information of PCR-primer sets are described in Table 1. [table] […] P values<0.05 were considered statistically significant. […] Results were expressed as mean±SD.

[3] = Telmisartan 10 mg/kg oral once daily, 8 to 12 weeks of age
Protocol: NASH was induced in 50 male mice by a single subcutaneous injection of 200 μg streptozotocin (STZ, Sigma-Aldrich, USA) solution 2 days after birth and feeding with high fat diet (HFD, 57 kcal % fat, cat#: HFD32, CLEA Japan, Japan) after 4 weeks of age.
MN-001 was administered at doses of 10, 30, and 100 mg/kg once daily. Telmisartan was administered at a dose of 10 mg/kg once daily.
Statistical analyses were performed using Bonferroni Multiple Comparison Test on GraphPad Prism 4 (GraphPad Software, USA). P values<0.05 were considered statistically significant. A trend or tendency was assumed when a one-tailed t-test returned P values<0.10. Results were expressed as mean±SD.
The viability, clinical signs and behavior were monitored daily. Body weight was recorded before the treatment. […] The animals were sacrificed by exsanguination through direct cardiac puncture under ether anesthesia (Wako Pure Chemical Industries).

[4] = system: LTC4 synthase mRNA; assay: Liver gene expression by quantitative RT-PCR: LTC4 synthase; assay type: in vivo, C57BL/6 mice; settings: Telmisartan 10 mg/kg oral once daily, 8 to 12 weeks of age
Protocol: as §1

[5] = all doses of MN-001 (10, 30, 100 mg/kg oral once daily, 8 to 12 weeks of age)
[6] = high dose, 100 mg/kg oral once daily, 8 to 12 weeks of age
[7] = 10 mg/kg oral once daily, 8 to 12 weeks of age (MN-001-low n=10; Telmisartan n=9)
[8] = 30 mg/kg oral once daily, 8 to 12 weeks of age (MN-001-middle, n=10)
[9] = 100 mg/kg oral once daily, 8 to 12 weeks of age (MN-001-high, n=10)
[10] = middle dose, 30 mg/kg oral once daily, 8 to 12 weeks of age

## CCCc1c(SCCCOc2ccc(C(C)=O)c(OCCCC(=O)O)c2CCC)ccc(C(C)=O)c1O [MN-001]
[1]; [5]
  Hepatocellular ballooning and inflammatory cell infiltration in HE-stained liver sections: marked improvements
  NAS compared with the Vehicle group: significantly decreased
[1]; [6]
  Ballooning score: significantly reduced
  NAS compared with the Vehicle group: significantly decreased
[1]; [7]
  NAS (NAFLD Activity Score): 3.6 ± 1.4
  Number of mice with Steatosis score 0: 3
  Number of mice with Lobular inflammation score 0: 2
  Number of mice with Steatosis score 1: 6
  Number of mice with Lobular inflammation score 1: 2
  Number of mice with Hepatocyte ballooning score 1: 6
  Number of mice with Lobular inflammation score 2: 6
  Number of mice with Steatosis score 2: 1
  Number of mice with Hepatocyte ballooning score 2: 4
[1]; [8]
  NAS (NAFLD Activity Score): 4.0 ± 0.9
  Number of mice with Lobular inflammation score 0: 1
  Number of mice with Steatosis score 1: 7
  Number of mice with Lobular inflammation score 1: 6
  Number of mice with Hepatocyte ballooning score 1: 5
  Number of mice with Lobular inflammation score 2: 3
  Number of mice with Steatosis score 2: 3
  Number of mice with Hepatocyte ballooning score 2: 5
[1]; [9]
  NAS (NAFLD Activity Score): 3.1 ± 0.7
  Number of mice with Lobular inflammation score 0: 4
  Number of mice with Steatosis score 1: 9
  Number of mice with Lobular inflammation score 1: 5
  Number of mice with Hepatocyte ballooning score 1: 7
  Number of mice with Lobular inflammation score 2: 1
  Number of mice with Steatosis score 2: 1
  Number of mice with Hepatocyte ballooning score 2: 3
[1]; [10]
  Ballooning score: significantly reduced
  NAS compared with the Vehicle group: significantly decreased
[2]
  FLAP mRNA expression levels compared with the Vehicle group: tended to increase

## CCCc1nc2c(C)cc(-c3nc4ccccc4n3C)cc2n1Cc1ccc(-c2ccccc2C(=O)O)cc1 [Telmisartan, reference compound]
[1]; Telmisartan 10 mg/kg oral once daily, 8 to 12 weeks of age
  NAS compared with the Vehicle group: significantly decreased
[1]; [7]
  NAS (NAFLD Activity Score): 2.8 ± 0.8
  Number of mice with Steatosis score 0: 2
  Number of mice with Lobular inflammation score 0: 2
  Number of mice with Steatosis score 1: 7
  Number of mice with Lobular inflammation score 1: 5
  Number of mice with Hepatocyte ballooning score 1: 9
  Number of mice with Lobular inflammation score 2: 2
[3]
  Mortality (animals found dead): One of the Telmisartan group was found dead on day 24
[4]
  LTC4 synthase mRNA expression levels compared with the Vehicle group: tended to decrease
